Results as given in PMC7377239, “Cardiovascular Effects of Polychlorinated Biphenyls and Their Major Metabolites” (Environmental Health Perspectives, 2020).
Counter-ions that a name gives are not always drawn. Like-named read-outs stand apart in the source and are kept apart here.

What was measured:
HUVECs = assay: High-content imaging cytotoxicity in HUVECs, 24 h; format: cell-based, human; details: Homo sapiens, HUVEC, 24 h, HUVECs; for viability at 0.01 µM / activity at 0.01 µM / viability at 0.1 µM / activity at 0.1 µM / viability at 1 µM / activity at 1 µM / viability at 10 µM / activity at 10 µM / viability at 100 µM / activity at 100 µM: 0.00 µM = 100.00; for viability at 0.1 µM / activity at 0.1 µM: 0.10 µM; for minimal effective concentration: top concentration 100.00 µM
Outline: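 Point-of-departure values come from four-parameter logistic fits of vehicle-normalized (0.5% DMSO) imaging readouts, cutoff one SD of vehicle means, 100μM where no concentration–response. Cells: HUVEC monolayers, passages 1–5, treated 24 h at 37°C, 5% CO2, then Hoechst 33342/MitoTracker Orange/calcein AM stained, imaged at 10×.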

[1] = tested on: iCell endothelial cells (human iPSC-derived ECs); assay: Tube formation (tubulogenesis) assay in iCell endothelial cells, 18 h; format: cell-based; details: Homo sapiens, Endothelial cell, iPSC-EC tube formation, 18 hr; for activity at 0.1 µM: 0.10 µM; for minimal effective concentration: top concentration 100.00 µM
Outline: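 Tube formation was measured by calcein AM imaging after overnight compound exposure (37°C, 0.5% DMSO vehicle) of human iPSC-derived ECs, 7,500/well, on reduced-growth-factor Geltrex in starvation medium. Vehicle-normalized data fitted to four-parameter logistic; POD set at one vehicle SD; without response, 100 μM taken as NOAEL.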

[2] = 24 hr, read-out: huvec.cyto.24hr
[3] = 24 hr, read-out: huvec.mito.24hr
[4] = 24 hr, read-out: huvec.mitoint.24hr
[5] = 24 hr, read-out: huvec.nma.24hr
[6] = 24 hr, read-out: huvec.cyto.24hr POD
[7] = 24 hr, read-out: huvec.mito.24hr POD
[8] = 24 hr, read-out: huvec.mitoint.24hr POD
[9] = 24 hr, read-out: huvec.nma.24hr POD
[10] = 24 hrs, read-out: huvec.tc.24hrs
[11] = 24 hrs, read-out: huvec.tc.24hrs POD
[12] = 0.00 µM control = 100.00, read-out: endo.mtl.18hr
[13] = 0.00 µM control = 100.00, read-out: endo.tlps.18hr
[14] = 0.00 µM control = 100.00, read-out: endo.tta.18hr
[15] = 0.00 µM control = 100.00, read-out: endo.ttl.18hr

Oc1ccccc1-c1ccc(Cl)cc1 [2'-OH PCB3]
viability at 0.01 µM (HUVECs; [2]): 88.2% | activity at 0.01 µM (HUVECs; [3]): 87.7% | activity at 0.01 µM (HUVECs; [4]): 94.4% | activity at 0.01 µM (HUVECs; [5]): 93.4% | viability at 0.1 µM (HUVECs; [2]): 84.3% | activity at 0.1 µM (HUVECs; [3]): 84% | activity at 0.1 µM (HUVECs; [4]): 125% | activity at 0.1 µM (HUVECs; [5]): 97.1% | viability at 1 µM (HUVECs; [2]): 93% | activity at 1 µM (HUVECs; [3]): 92.5% | activity at 1 µM (HUVECs; [4]): 107% | activity at 1 µM (HUVECs; [5]): 95.6% | viability at 10 µM (HUVECs; [2]): 90.2% | activity at 10 µM (HUVECs; [3]): 88.2% | activity at 10 µM (HUVECs; [4]): 104% | activity at 10 µM (HUVECs; [5]): 92.6% | viability at 100 µM (HUVECs; [2]): 47.5% | activity at 100 µM (HUVECs; [3]): 38.4% | activity at 100 µM (HUVECs; [4]): 9.54% | activity at 100 µM (HUVECs; [5]): 65% | minimal effective concentration (HUVECs; [6]): 5.19 µM | minimal effective concentration (HUVECs; [7]): 4.06 µM | minimal effective concentration (HUVECs; [8]): 34.4 µM | minimal effective concentration (HUVECs; [9]): 1.6 µM | viability at 0.01 µM (HUVECs; [10]): 88.2% | viability at 0.1 µM (HUVECs; [10]): 84.3% | viability at 1 µM (HUVECs; [10]): 93.2% | viability at 10 µM (HUVECs; [10]): 90.3% | viability at 100 µM (HUVECs; [10]): 84.1% | minimal effective concentration (HUVECs; [11]): 5.19 µM | activity at 0.01 µM [1, 12]: 114% | activity at 0.01 µM [1, 13]: 123% | activity at 0.01 µM [1, 14]: 120% | activity at 0.01 µM [1, 15]: 113% | activity at 0.1 µM [1, 12]: 106% | activity at 0.1 µM [1, 13]: 118% | activity at 0.1 µM [1, 14]: 103% | activity at 0.1 µM [1, 15]: 103% | activity at 1 µM [1, 12]: 100% | activity at 1 µM [1, 13]: 102% | activity at 1 µM [1, 14]: 99.3% | activity at 1 µM [1, 15]: 98.8% | activity at 10 µM [1, 12]: 91.1% | activity at 10 µM [1, 13]: 76.6% | activity at 10 µM [1, 14]: 98% | activity at 10 µM [1, 15]: 91.8% | activity at 100 µM [1, 12]: 54.3% | activity at 100 µM [1, 13]: 20.2% | activity at 100 µM [1, 14]: 18.5% | activity at 100 µM [1, 15]: 21.2% | minimal effective concentration ([1]; read-out: endo.mtl.18hr POD): 13.4 µM | minimal effective concentration ([1]; read-out: endo.tlps.18hr POD): 9.27 µM | minimal effective concentration ([1]; read-out: endo.tta.18hr POD): 29.9 µM | minimal effective concentration ([1]; read-out: endo.ttl.18hr POD): 23.1 µM

O=S(=O)(O)Oc1ccc(-c2cccc(Cl)c2)cc1Cl [4-yl PCB 11 sulfate]
viability at 0.01 µM (HUVECs; [2]): 97.3% | activity at 0.01 µM (HUVECs; [3]): 95.5% | activity at 0.01 µM (HUVECs; [4]): 95.8% | activity at 0.01 µM (HUVECs; [5]): 97.3% | viability at 0.1 µM (HUVECs; [2]): 86.8% | activity at 0.1 µM (HUVECs; [3]): 85.9% | activity at 0.1 µM (HUVECs; [4]): 118% | activity at 0.1 µM (HUVECs; [5]): 104% | viability at 1 µM (HUVECs; [2]): 97.8% | activity at 1 µM (HUVECs; [3]): 96.6% | activity at 1 µM (HUVECs; [4]): 99.3% | activity at 1 µM (HUVECs; [5]): 97% | viability at 10 µM (HUVECs; [2]): 108% | activity at 10 µM (HUVECs; [3]): 107% | activity at 10 µM (HUVECs; [4]): 93.5% | activity at 10 µM (HUVECs; [5]): 93.9% | viability at 100 µM (HUVECs; [2]): 58.3% | activity at 100 µM (HUVECs; [3]): 58.9% | activity at 100 µM (HUVECs; [4]): 54.2% | activity at 100 µM (HUVECs; [5]): 75.6% | minimal effective concentration (HUVECs; [6]): 48.8 µM | minimal effective concentration (HUVECs; [7]): 45.1 µM | minimal effective concentration (HUVECs; [8]): 10.8 µM | minimal effective concentration (HUVECs; [9]): 2.98 µM | viability at 0.01 µM (HUVECs; [10]): 97.3% | viability at 0.1 µM (HUVECs; [10]): 86.8% | viability at 1 µM (HUVECs; [10]): 97.8% | viability at 10 µM (HUVECs; [10]): 108% | viability at 100 µM (HUVECs; [10]): 59.1% | minimal effective concentration (HUVECs; [11]): 48.8 µM | activity at 0.01 µM [1, 12]: 107% | activity at 0.01 µM [1, 13]: 113% | activity at 0.01 µM [1, 14]: 174% | activity at 0.01 µM [1, 15]: 179% | activity at 0.1 µM [1, 12]: 122% | activity at 0.1 µM [1, 13]: 98.8% | activity at 0.1 µM [1, 14]: 119% | activity at 0.1 µM [1, 15]: 124% | activity at 1 µM [1, 12]: 113% | activity at 1 µM [1, 13]: 103% | activity at 1 µM [1, 14]: 124% | activity at 1 µM [1, 15]: 128% | activity at 10 µM [1, 12]: 94.3% | activity at 10 µM [1, 13]: 82.5% | activity at 10 µM [1, 14]: 91.7% | activity at 10 µM [1, 15]: 93.7% | activity at 100 µM [1, 12]: 68.5% | activity at 100 µM [1, 13]: 27.8% | activity at 100 µM [1, 14]: 26.5% | activity at 100 µM [1, 15]: 25.6% | minimal effective concentration ([1]; read-out: endo.mtl.18hr POD): 25.3 µM | minimal effective concentration ([1]; read-out: endo.tlps.18hr POD): 12.7 µM | minimal effective concentration ([1]; read-out: endo.tta.18hr POD): 21 µM | minimal effective concentration ([1]; read-out: endo.ttl.18hr POD): 25.6 µM
